*1 amine or outer side, *2 acyl side, *3 side chain or, on linkers, in order; H or OH if unused. Where a SMILES comes first, the peptide text is derived from it. Side-chain parts run from the residue outwards. [ ]: non-standard residue; d: D form. The star is where a group is joined. NH(4-Cl-phenyl) = Clc1ccc(N*)cc1; Cha = N[C@@H](CC1CCCCC1)C(=O)O; Tle = CC(C)(C)[C@H](N)C(=O)O; NH(2-ClPh) = Clc1ccccc1N*; dDab = NCC[C@@H](N)C(=O)O; Orn = NCCC[C@H](N)C(=O)O; Dab = NCC[C@H](N)C(=O)O; Dap = NC[C@H](N)C(=O)O; CO = O=C([*:1])[*:2]
Experiments:
Assay type in all cases: cell-based
[1] = tested on: human red blood cells (hRBC); experiment: Hemolysis of human red blood cells
Procedure, shortened: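 Washed fresh human erythrocytes (20% v/v, about 0.9×10^9 cells/ml final) incubated with peptide at 100 μg/ml for 1 h at 37° C with shaking. Supernatant OD540 read; hemolysis expressed relative to 2.5% Triton X-100 (100%) and PBS with 0.001% acetic acid (0%).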

[2] = tested on: Escherichia coli ATCC 25922; conditions: Mueller-Hinton II broth + 0.02% BSA, 18-20 hours at 35° C.
Method: (§1) Lyophilized peptides were weighed on a Microbalance (Mettler MT5) and dissolved in sterile water to a final concentration of 1 mg/ml. Stock solutions were kept at +4° C., light protected.
(§2) The selective antimicrobial activities of the peptides were determined in 96-well plates (Greiner, polystyrene) by the standard NCCLS broth microdilution method (National Committee for Clinical Laboratory Standards 1993. Methods for dilution antimicrobial susceptibility tests for bacteria that grow aerobically, 3rd ed. Approved standard M7-A6; National Committee for Clinical laboratory standards, Wayne, Pa.) with slight modifications. Inocula of the microorganisms were diluted into Mueller-Hinton II (MH, cation adjusted) broth+0.02% BSA and compared with a 0.5 McFarland standard to give appr. 10^6 colony forming units (CFU)/ml. Aliquots (50 μl) of inoculate were added to 50 μl of MH broth+0.02% BSA containing the peptide in serial two-fold dilutions. The following microorganisms were used to determine antibiotic selectivity of the peptides: Escherichia coli ATCC 25922, Klebsiella pneumoniae ATCC 13883 and Acinetobacter baumannii DSM 30008.

[3] = tested on: Acinetobacter baumannii DSM 30008; conditions: Mueller-Hinton II broth + 0.02% BSA, 18-20 hours at 35° C.
Method: as §1, §2

[4] = tested on: Klebsiella pneumoniae ATCC 13883; conditions: Mueller-Hinton II broth + 0.02% BSA, 18-20 hours at 35° C.
Method: as §1, §2

[5] = 100 μg/ml, 20% hRBC, 1 h at 37° C.

SMILES | Hemolysis at 100 μg/ml [1, 5] | Escherichia coli ATCC 25922 MIC [2] | Acinetobacter baumannii DSM 30008 MIC [3] | Klebsiella pneumoniae ATCC 13883 MIC [4] | Hemolysis at 100 μg/ml ([1]; red cells of human, 1 h, 100)
CC(C)C[C@@H]1NC(=O)[C@@H]2CCCN2C(=O)[C@H]2CCCN2C(=O)[C@H](CO)NC(=O)[C@H](C)NC(=O)[C@H](C(C)(C)C)NC(=O)[C@H](CCN)NC(=O)[C@H](Cc2c[nH]c3ccccc23)NC(=O)[C@H](CCN)NC(=O)[C@@H](CCN)NC(=O)[C@H](CCCN)NC(=O)[C@H](CCN)NC(=O)[C@H](CC2CCCCC2)NC(=O)[C@H](CNC(=O)Nc2ccccc2Cl)NC1=O [compound 38] (cyclo(L[Dap]([CO-NH(2-ClPh)])[Cha][Dab][Orn][dDab][Dab]W[Dab][Tle]AS[dP]P)) | 4% | 1 µg/mL | 1 µg/mL | 1 µg/mL | –
C[C@@H]1NC(=O)[C@H](CNC(=O)Nc2ccccc2Cl)NC(=O)[C@@H]2CCCN2C(=O)[C@H]2CCCN2C(=O)[C@H](CO)NC(=O)[C@H](C)NC(=O)[C@H](C(C)(C)C)NC(=O)[C@H](CCN)NC(=O)[C@H](Cc2c[nH]c3ccccc23)NC(=O)[C@H](CCN)NC(=O)[C@@H](CCN)NC(=O)[C@H](CCCN)NC(=O)[C@H](CCN)NC(=O)[C@H](CC2CCCCC2)NC1=O [compound 52] (cyclo([Dap]([CO-NH(2-ClPh)])A[Cha][Dab][Orn][dDab][Dab]W[Dab][Tle]AS[dP]P)) | 0% | 1 µg/mL | 2 µg/mL | 1 µg/mL | –
C[C@@H]1NC(=O)[C@H](CNC(=O)Nc2ccc(Cl)cc2)NC(=O)[C@@H]2CCCN2C(=O)[C@H]2CCCN2C(=O)[C@H](CO)NC(=O)[C@H](C)NC(=O)[C@H](C(C)(C)C)NC(=O)[C@H](CCN)NC(=O)[C@H](Cc2c[nH]c3ccccc23)NC(=O)[C@H](CCN)NC(=O)[C@@H](CCN)NC(=O)[C@H](CCCN)NC(=O)[C@H](CCN)NC(=O)[C@H](CC2CCCCC2)NC1=O [compound 53] (cyclo([Dap]([CO-NH(4-Cl-phenyl)])A[Cha][Dab][Orn][dDab][Dab]W[Dab][Tle]AS[dP]P)) | 2% | 1 µg/mL | 1 µg/mL | 1 µg/mL | –
C[C@@H]1NC(=O)[C@H](C(C)(C)C)NC(=O)[C@H](CCN)NC(=O)[C@H](Cc2c[nH]c3ccccc23)NC(=O)[C@H](CCN)NC(=O)[C@@H](CCN)NC(=O)[C@H](CCCN)NC(=O)[C@H](CCN)NC(=O)[C@H](Cc2ccc(O)cc2)NC(=O)[C@H](CO)NC(=O)[C@H]([C@@H](C)O)NC(=O)[C@@H]2CCCN2C(=O)[C@H]2CCCN2C(=O)[C@H](Cc2ccc(O)cc2)NC1=O [compound 158] (cyclo(TSY[Dab][Orn][dDab][Dab]W[Dab][Tle]AY[dP]P)) | – | – | – | – | 1%
CC(C)C[C@@H]1NC(=O)[C@@H]2CCCN2C(=O)[C@H]2CCCN2C(=O)[C@H](CO)NC(=O)[C@H](CC(=O)O)NC(=O)[C@H](C(C)(C)C)NC(=O)[C@H](CCN)NC(=O)[C@H](Cc2c[nH]c3ccccc23)NC(=O)[C@H](CCN)NC(=O)[C@@H](CCN)NC(=O)[C@H](CCCN)NC(=O)[C@H](CCN)NC(=O)[C@H](Cc2ccc(O)cc2)NC(=O)[C@H](CCN)NC1=O [compound 159] (cyclo(L[Dab]Y[Dab][Orn][dDab][Dab]W[Dab][Tle]DS[dP]P)) | – | – | – | – | 1%
C[C@@H]1NC(=O)[C@H](C(C)(C)C)NC(=O)[C@H](CCN)NC(=O)[C@H](Cc2c[nH]c3ccccc23)NC(=O)[C@H](CCN)NC(=O)[C@@H](CCN)NC(=O)[C@H](CCCN)NC(=O)[C@H](CCN)NC(=O)[C@H](Cc2ccc(O)cc2)NC(=O)[C@H](CN)NC(=O)[C@H](Cc2ccccc2)NC(=O)[C@@H]2CCCN2C(=O)[C@H]2CCCN2C(=O)[C@H](CO)NC1=O [compound 160] (cyclo(F[Dap]Y[Dab][Orn][dDab][Dab]W[Dab][Tle]AS[dP]P)) | – | – | – | – | 1%
CC(C)C[C@@H]1NC(=O)[C@H](C)NC(=O)[C@H](C(C)(C)C)NC(=O)[C@H](CCN)NC(=O)[C@H](Cc2c[nH]c3ccccc23)NC(=O)[C@H](CCN)NC(=O)[C@@H](CCN)NC(=O)[C@H](CCCN)NC(=O)[C@H](CCN)NC(=O)[C@H](Cc2ccc(O)cc2)NC(=O)[C@H](CO)NC(=O)[C@H]([C@@H](C)O)NC(=O)[C@@H]2CCCN2C(=O)[C@H]2CCCN2C1=O [compound 161] (cyclo(TSY[Dab][Orn][dDab][Dab]W[Dab][Tle]AL[dP]P)) | – | – | – | – | 2%
